# Test results from patent US10174002B2, “Pyridine derivatives as CFTR modulators” (NuBridge BioSciences, priority 2015, dated 2019).
# Target: T1, ΔF508 mutant CFTR (Homo sapiens, UniProt P13569, DEL508-508)
# T1 construct: expressed in transfected cells; host or cells: Fischer rat thyroid (FRT) cells, co-expressing the halide-sensitive YFP-H148Q/I152L
# Experiment: Fluorescence Assay of ΔF508 mutant CFTR activity (halide-sensitive YFP quenching by iodide influx in FRT cells)
# Assay type: cell-based
# Parameters: key: fold of mean activity with forskolin alone (I− quenching rate)
# Settings: test compounds 20 μM with forskolin 20 μM, 20 min; FRT cells expressing ΔF508-CFTR and YFP-H148Q/I152L, incubated at 27° C. 20-24 h; rate of fluorescence quenching by I−, normalized to mean activity with forskolin alone
# Source text: The ΔF508 mutant CFTR activities of the CFTR modulators are detected using the Fluorescence Assay developed by Pedemonte (Pedemonte N., et al., Antihypertensive 1,4-dihydropyridines as correctors of the cystic fibrosis transmembrane conductance regulator channel gating defect caused by cystic fibrosis mutations, Mol. Pharmacol., 2005, 68, 1736-1746).
# Fischer rat thyroid (FRT) cells, stably transfected with ΔF508 were retransfected with the YFP-H148Q/I152L fluorescent protein. The cells were plated (100,000 cells/well) on black 96-well microplates with clear plastic bottom (Corning Life Sciences, Acton, Mass.).
# The 96-well microplates containing FRT cells expressing F508-CFTR and the halide-sensitive YFP were incubated at 27° C. for 20 to 24 h to allow rescue of the mutant protein to the plasma membrane. After incubation, cells were washed with PBS (containing 137 mM NaCl, 2.7 mM KCl, 8.1 mM Na2HPO4, 1.5 mM KH2PO4, 1 mM CaCl2, and 0.5 mM MgCl2) and stimulated for 20 min with forskolin (20 μM) and test compounds (20 μM) in a final volume of 60 μl. Microplates were then transferred to a microplate reader for CFTR activity determination. Each assay consisted of a continuous 14-s fluorescence reading (5 points per second) with 2 s before and 12 s after injection of 165 μl of an iodide-containing solution (PBS with Cl^− replaced by I^−). Final iodide concentration in the wells was 100 mM. […] To determine I^− influx rate, the final 11 s of the data for each well were fitted with an exponential function to extrapolate initial slope. CFTR activity was determined by measuring the rate of fluorescence quenching induced by extracellular addition of I^−. Data are normalized to the mean activity measured in the presence of forskolin alone.
# T1 sequence (P13569 with tags, fused parts or gaps DEL508-508): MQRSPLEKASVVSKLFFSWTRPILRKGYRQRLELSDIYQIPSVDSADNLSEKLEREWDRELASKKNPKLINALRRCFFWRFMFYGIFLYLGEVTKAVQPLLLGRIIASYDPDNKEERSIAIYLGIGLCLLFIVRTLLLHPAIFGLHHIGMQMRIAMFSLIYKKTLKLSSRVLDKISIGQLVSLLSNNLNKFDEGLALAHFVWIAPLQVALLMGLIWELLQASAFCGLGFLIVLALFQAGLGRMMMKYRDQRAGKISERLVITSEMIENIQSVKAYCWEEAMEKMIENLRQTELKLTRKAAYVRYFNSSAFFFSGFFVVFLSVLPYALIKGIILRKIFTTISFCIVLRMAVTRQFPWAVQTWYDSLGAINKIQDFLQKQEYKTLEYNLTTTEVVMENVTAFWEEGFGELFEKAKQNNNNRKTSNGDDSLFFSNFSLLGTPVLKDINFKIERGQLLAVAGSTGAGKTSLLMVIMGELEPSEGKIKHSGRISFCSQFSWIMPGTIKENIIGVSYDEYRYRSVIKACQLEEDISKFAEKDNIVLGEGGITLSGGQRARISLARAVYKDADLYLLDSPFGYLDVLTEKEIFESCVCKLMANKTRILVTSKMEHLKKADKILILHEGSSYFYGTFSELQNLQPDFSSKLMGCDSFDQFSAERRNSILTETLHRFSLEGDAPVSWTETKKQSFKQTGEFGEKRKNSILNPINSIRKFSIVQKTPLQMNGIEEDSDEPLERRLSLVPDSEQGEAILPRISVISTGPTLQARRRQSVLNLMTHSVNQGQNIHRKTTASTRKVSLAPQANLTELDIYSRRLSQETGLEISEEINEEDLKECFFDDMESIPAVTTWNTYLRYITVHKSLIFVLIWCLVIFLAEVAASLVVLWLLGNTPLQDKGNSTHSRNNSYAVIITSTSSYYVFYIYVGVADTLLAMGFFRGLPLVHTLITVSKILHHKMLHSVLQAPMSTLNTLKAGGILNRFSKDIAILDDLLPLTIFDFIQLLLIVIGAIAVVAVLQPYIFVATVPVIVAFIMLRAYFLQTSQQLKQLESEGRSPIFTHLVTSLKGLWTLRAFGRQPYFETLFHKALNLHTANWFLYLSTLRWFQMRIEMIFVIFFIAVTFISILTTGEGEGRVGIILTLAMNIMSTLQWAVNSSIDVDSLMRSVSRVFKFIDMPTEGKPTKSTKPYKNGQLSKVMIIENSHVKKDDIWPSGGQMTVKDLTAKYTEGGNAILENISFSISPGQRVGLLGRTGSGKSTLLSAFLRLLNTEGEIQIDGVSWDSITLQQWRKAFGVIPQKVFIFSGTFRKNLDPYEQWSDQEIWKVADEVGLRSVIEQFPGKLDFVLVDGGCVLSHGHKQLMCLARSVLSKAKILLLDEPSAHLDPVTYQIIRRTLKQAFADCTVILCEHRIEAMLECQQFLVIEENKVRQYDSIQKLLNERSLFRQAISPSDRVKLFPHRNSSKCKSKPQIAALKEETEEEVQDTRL
row,Structure (SMILES),CFTR Activity
1,"O=C(Nc1cnccc1OCCCCO)c1ccc(F)c(-c2c(F)cccc2F)n1 [Example 19, 6-(2,6-difluorophenyl)-5-fluoro-N-(4-(4-hydroxybutoxy)pyridin-3-yl)picolinamide]",0.3
2,"Cl.Nc1cc(F)c(-c2c(F)cccc2F)nc1C(=O)Nc1cnccc1OC1CCCC(N)C1 (stereo not drawn) [Example 37, 3-amino-N-(4-((3-aminocyclohexyl)oxy)pyridin-3-yl)-6-(2,6-difluorophenyl)-5-fluoropicolinamide hydrochloride]",4.8
3,"Cl.N[C@H]1CC[C@H](Oc2ccncc2NC(=O)c2ccc(C(F)(F)F)c(-c3c(F)cccc3F)n2)CC1 [Example 46, N-(4-(((1r,4r)-4-aminocyclohexyl)oxy)pyridin-3-yl)-6-(2,6-difluorophenyl)-5-(trifluoromethyl)picolinamide hydrochloride]",3.1
4,"COc1cccc(F)c1-c1nc(C(=O)Nc2cnccc2OC2CCCNCC2)ccc1F.Cl (stereo not drawn) [Example 41, N-(4-(azepan-4-yloxy)pyridin-3-yl)-5-fluoro-6-(2-fluoro-6-methoxyphenyl)picolinamide hydrochloride]",2.0
5,"Cl.O=C(Nc1cnccc1OC1CCNC1)c1ccc(F)c(-c2c(F)cccc2F)n1 (stereo not drawn) [Example 4, 6-(2,6-difluorophenyl)-5-fluoro-N-(4-(pyrrolidin-3-yloxy)pyridin-3-yl)picolinamide hydrochloride]",0.9
6,"Cl.O=C(Nc1cnccc1OC1CCNCC1)c1ccc(F)c(-c2ccncc2)n1 [Example 39, 3-fluoro-N-(4-(piperidin-4-yloxy)pyridin-3-yl)-[2,4′-bipyridine]-6-carboxamide hydrochloride]",1.0
7,"Cl.O=C(Nc1cnccc1OC1CCCNC1)c1ccc(F)c(-c2c(F)cccc2F)n1 (stereo not drawn) [Example 5, 6-(2,6-difluorophenyl)-5-fluoro-N-(4-(piperidin-3-yloxy)pyridin-3-yl)picolinamide hydrochloride]",0.5
8,"CN(C)CCCOc1ccncc1NC(=O)c1ccc(F)c(-c2c(F)cccc2F)n1.Cl [Example 14, 6-(2,6-difluorophenyl)-N-(4-(3-(dimethylamino)propoxy)pyridin-3-yl)-5-fluoropicolinamide hydrochloride]",0.2
9,"Cl.NCC(CCl)Oc1ccncc1NC(=O)c1nc(-c2c(F)cccc2F)c(F)cc1N (stereo not drawn) [Example 33, 3-amino-N-(4-((1-amino-3-chloropropan-2-yl)oxy)pyridin-3-yl)-6-(2,6-difluorophenyl)-5-fluoropicolinamide hydrochloride]",2.1
10,"CC(O)CCOc1ccncc1NC(=O)c1ccc(F)c(-c2c(F)cccc2F)n1 (stereo not drawn) [Example 18, 6-(2,6-difluorophenyl)-5-fluoro-N-(4-(3-hydroxybutoxy)pyridin-3-yl)picolinamide]",0.1
11,"Cl.O=C(Nc1cnccc1OCC1CCCNC1)c1ccc(F)c(-c2c(F)cccc2F)n1 (stereo not drawn) [Example 7, 6-(2,6-difluorophenyl)-5-fluoro-N-(4-(piperidin-3-ylmethoxy)pyridin-3-yl)picolinamide hydrochloride]",0.8
12,"Cl.Nc1cc(F)c(-c2ccccc2)nc1C(=O)Nc1cnccc1OC1CCNC1 (stereo not drawn) [Example 38, 3-amino-5-fluoro-6-phenyl-N-(4-(pyrrolidin-3-yloxy)pyridin-3-yl)picolinamide hydrochloride]",1.7
13,"Cl.O=C(Nc1cnccc1OC1CCNCC1)c1ccc(F)c(-c2c(F)cccc2F)n1 [Example 3, 6-(2,6-difluorophenyl)-5-fluoro-N-(4-(piperidin-4-yloxy)pyridin-3-yl)picolinamide hydrochloride]",1.6
14,"Cl.NC1CCCC(Oc2ccncc2NC(=O)c2ccc(F)c(-c3c(F)cccc3F)n2)C1 (stereo not drawn) [Example 11, N-(4-((3-aminocyclohexyl)oxy)pyridin-3-yl)-6-(2,6-difluorophenyl)-5-fluoropicolinamide hydrochloride]",3.1
15,"Cl.NCC(CO)COc1ccncc1NC(=O)c1ccc(F)c(-c2c(F)cccc2F)n1 (stereo not drawn) [Example 56, N-(4-(3-amino-2-(hydroxymethyl)propoxy)pyridin-3-yl)-6-(2,6-difluorophenyl)-5-fluoropicolinamide hydrochloride]",2.4
16,"O=C(Nc1cnccc1OCC1CCOCC1)c1ccc(F)c(-c2c(F)cccc2F)n1 [Example 22, 6-(2,6-difluorophenyl)-5-fluoro-N-(4-((tetrahydro-2H-pyran-4-yl)methoxy)pyridin-3-yl)picolinamide]",0.05
17,"Cl.Nc1cc(C(F)(F)F)c(-c2ccccc2)nc1C(=O)Nc1cnccc1OC1CCNC1 (stereo not drawn) [Example 53, 3-amino-6-phenyl-N-(4-(pyrrolidin-3-yloxy)pyridin-3-yl)-5-(trifluoromethyl)picolinamide hydrochloride]",2.5
18,"CC(C)(O)CCCOc1ccncc1NC(=O)c1ccc(F)c(-c2c(F)cccc2F)n1 [Example 20, 6-(2,6-difluorophenyl)-5-fluoro-N-(4-((4-hydroxy-4-methylpentyl)oxy)pyridin-3-yl)picolinamide]",0.1

# The remaining lines, values ahead:
row,CFTR Activity,Structure (SMILES)
1,2.2,"Cl.Nc1cc(F)c(-c2c(F)cccc2F)nc1C(=O)Nc1cnccc1OCC1CCNC1 (stereo not drawn) [Example 28, 3-amino-6-(2,6-difluorophenyl)-5-fluoro-N-(4-(pyrrolidin-3-ylmethoxy)pyridin-3-yl)picolinamide hydrochloride]"
2,4.3,"Cl.Nc1cc(F)c(-c2c(F)cccc2F)nc1C(=O)Nc1cnccc1OC1CCCNCC1 (stereo not drawn) [Example 26, 3-amino-N-(4-(azepan-4-yloxy)pyridin-3-yl)-6-(2,6-difluorophenyl)-5-fluoropicolinamide hydrochloride]"
3,2.5,"Cl.Nc1cc(F)c(-c2c(F)cccc2F)nc1C(=O)Nc1cnccc1OCC1CCNCC1 [Example 23, 3-amino-6-(2,6-difluorophenyl)-5-fluoro-N-(4-(piperidin-4-ylmethoxy)pyridin-3-yl)picolinamide hydrochloride]"
4,4.5,"Cl.Nc1cc(F)c(-c2c(F)cccc2F)nc1C(=O)Nc1cnccc1O[C@H]1CC[C@H](N)CC1 [Example 27, 3-amino-N-(4-(((1r,4r)-4-aminocyclohexyl)oxy)pyridin-3-yl)-6-(2,6-difluorophenyl)-5-fluoropicolinamide hydrochloride]"
5,4.3,"Cl.Nc1cc(C(F)(F)F)c(-c2c(F)cccc2F)nc1C(=O)Nc1cnccc1OCC1CCNCC1 [Example 49, 3-amino-6-(2,6-difluorophenyl)-N-(4-(piperidin-4-ylmethoxy)pyridin-3-yl)-5-(trifluoromethyl)picolinamide hydrochloride]"
6,2.3,"Cl.O=C(Nc1cnccc1OCC1CCNCC1)c1ccc(C(F)(F)F)c(-c2c(F)cccc2F)n1 [Example 43, 6-(2,6-difluorophenyl)-N-(4-(piperidin-4-ylmethoxy)pyridin-3-yl)-5-(trifluoromethyl)picolinamide hydrochloride]"
7,5.2,"Cl.Nc1cc(C(F)(F)F)c(-c2c(F)cccc2F)nc1C(=O)Nc1cnccc1OC1CCCNCC1 (stereo not drawn) [Example 48, 3-amino-N-(4-(azepan-4-yloxy)pyridin-3-yl)-6-(2,6-difluorophenyl)-5-(trifluoromethyl)picolinamide hydrochloride]"
8,1.2,"Cl.Nc1cc(F)c(-c2c(F)cccc2F)nc1C(=O)Nc1cnccc1OCC1CNC1 [Example 32, 3-amino-N-(4-(azetidin-3-ylmethoxy)pyridin-3-yl)-6-(2,6-difluorophenyl)-5-fluoropicolinamide hydrochloride]"
9,5.4,Cl.Nc1cc(C(F)(F)F)c(-c2c(F)cccc2F)nc1C(=O)Nc1cnccc1O[C@H]1CC[C@H](N)CC1 [Example 52]
10,1.4,"Cl.O=C(Nc1cnccc1OCC1CCNCC1)c1ccc(F)c(-c2c(F)cccc2F)n1 [Example 1, 6-(2,6-difluorophenyl)-5-fluoro-N-(4-(piperidin-4-ylmethoxy)pyridin-3-yl)picolinamide hydrochloride]"
11,2.1,"Cl.O=C(Nc1cnccc1OCC1CNC1)c1ccc(C(F)(F)F)c(-c2c(F)cccc2F)n1 [Example 44, N-(4-(azetidin-3-ylmethoxy)pyridin-3-yl)-6-(2,6-difluorophenyl)-5-(trifluoromethyl)picolinamide hydrochloride]"
12,4.8,"Cl.Nc1cc(C(F)(F)F)c(-c2c(F)cccc2F)nc1C(=O)Nc1cnccc1OC1CCNCC1 [Example 51, 3-amino-6-(2,6-difluorophenyl)-N-(4-(piperidin-4-yloxy)pyridin-3-yl)-5-(trifluoromethyl)picolinamide hydrochloride]"
